Where a name gives a salt, the structure may show the parent alone.
Key:
[1] = DSC and TGA tests; format: physicochemical; conditions: onset temperature
Method: 6. Differential Scanning Calorimetry-Thermogravimetric Analysis (DSC-TGA)
Detection instrument: NETZSCH STA 449F3
Temperature range: 20° C.-350° C.;
Heating rate: 10.0 (K/min);
7. Differential Scanning Calorimetry (DSC)
Detection instrument: NETZSCH DSC 214 Polyma
Temperature range: 20° C.-250° C.;
Heating rate: 5.0 (K/min);
8. Thermogravimetric Analysis (TGA)
Detection instrument: METTLER and SDT Q600
The salts obtained in Examples 1 and 3-17 and the compound represented by Formula 1 were subjected to the DSC and TGA tests in media, and the test results were shown in the following table: […]

[2] = test system: human non-small cell lung cancer HCC827; assay: In-vivo anti-tumor test, non-small cell lung cancer model; design: species or system nude mice; conditions: once daily oral administration for 30 days
Method: (§1) The salt sample obtained from Example 1 was tested (specifically for FLT3-ITD acute myeloid leukemia, non-small cell lung cancer with EGFR activating mutations, or Ph-positive chronic myeloid leukemia) according to the in-vivo anti-tumor test described in the biological assessment of the patent application WO2011/147066.

[3] = biological target: BTK (Homo sapiens, UniProt Q06187); assay: Kinase inhibitory activity test (per WO2011/147066); format: biochemical; conditions: result in words
Method: (§2) The salt sample obtained from Example 1 was tested according to the kinase inhibitory activity test described in the biological assessment of the patent application WO2011/147066.

[4] = biological target: Ret(h) (Homo sapiens, UniProt P07949); assay: as above; format: biochemical
Method: as §2

[5] = biological target: Yes (Homo sapiens, UniProt P07947); assay: as above; format: biochemical
Method: as §2

[6] = biological target: FLT3(h) (Homo sapiens, UniProt P36888); assay: as above; format: biochemical
Method: as §2

[7] = biological target: Lyn(h) (Homo sapiens, UniProt P07948); assay: as above; format: biochemical
Method: as §2

[8] = biological target: VEGFR2 (Homo sapiens, UniProt P35968); assay: as above; format: biochemical; conditions: VEGFR2, result in words
Method: as §2

[9] = biological target: c-KIT (Homo sapiens, UniProt P10721); assay: as above; format: biochemical; conditions: result in words
Method: as §2

[10] = biological target: ALK (Homo sapiens, UniProt Q9UM73); assay: as above; format: biochemical; conditions: result in words
Method: as §2

[11] = biological target: FGFRl(h) (Homo sapiens, UniProt P11362); assay: as above; format: biochemical
Method: as §2

[12] = biological target: KDR(h) (Homo sapiens, UniProt P35968); assay: as above; format: biochemical
Method: as §2

[13] = biological target: Fyn(h) (Homo sapiens, UniProt P06241); assay: as above; format: biochemical
Method: as §2

[14] = biological target: Hck(h) (Homo sapiens, UniProt P08631); assay: as above; format: biochemical
Method: as §2

[15] = biological target: Lck(h) (Homo sapiens, UniProt P06239); assay: as above; format: biochemical
Method: as §2

[16] = biological target: FLT3-ITD(h) (Homo sapiens, UniProt P36888); assay: as above; format: biochemical
Method: as §2

[17] = biological target: c-SRC(h) (Homo sapiens, UniProt P12931); assay: as above; format: biochemical
Method: as §2

[18] = biological target: PDGFRα (Homo sapiens, UniProt P16234); assay: as above; format: biochemical; conditions: result in words
Method: as §2

[19] = biological target: Abl(h) (Homo sapiens, UniProt P00519); assay: as above; format: biochemical
Method: as §2

[20] = biological target: MET (Homo sapiens, UniProt P08581); assay: as above; format: biochemical; conditions: result in words
Method: as §2

[21] = test system: MV4-11 (FLT3-ITD mutation) subcutaneous tumor model; assay: In-vivo anti-tumor test, MV4-11 subcutaneous tumor model; design: species or system nude mice; conditions: MV4-11 model, once daily oral administration for 21 days
Method: as §1

Sequence of Abl(h) (P00519 whole entry): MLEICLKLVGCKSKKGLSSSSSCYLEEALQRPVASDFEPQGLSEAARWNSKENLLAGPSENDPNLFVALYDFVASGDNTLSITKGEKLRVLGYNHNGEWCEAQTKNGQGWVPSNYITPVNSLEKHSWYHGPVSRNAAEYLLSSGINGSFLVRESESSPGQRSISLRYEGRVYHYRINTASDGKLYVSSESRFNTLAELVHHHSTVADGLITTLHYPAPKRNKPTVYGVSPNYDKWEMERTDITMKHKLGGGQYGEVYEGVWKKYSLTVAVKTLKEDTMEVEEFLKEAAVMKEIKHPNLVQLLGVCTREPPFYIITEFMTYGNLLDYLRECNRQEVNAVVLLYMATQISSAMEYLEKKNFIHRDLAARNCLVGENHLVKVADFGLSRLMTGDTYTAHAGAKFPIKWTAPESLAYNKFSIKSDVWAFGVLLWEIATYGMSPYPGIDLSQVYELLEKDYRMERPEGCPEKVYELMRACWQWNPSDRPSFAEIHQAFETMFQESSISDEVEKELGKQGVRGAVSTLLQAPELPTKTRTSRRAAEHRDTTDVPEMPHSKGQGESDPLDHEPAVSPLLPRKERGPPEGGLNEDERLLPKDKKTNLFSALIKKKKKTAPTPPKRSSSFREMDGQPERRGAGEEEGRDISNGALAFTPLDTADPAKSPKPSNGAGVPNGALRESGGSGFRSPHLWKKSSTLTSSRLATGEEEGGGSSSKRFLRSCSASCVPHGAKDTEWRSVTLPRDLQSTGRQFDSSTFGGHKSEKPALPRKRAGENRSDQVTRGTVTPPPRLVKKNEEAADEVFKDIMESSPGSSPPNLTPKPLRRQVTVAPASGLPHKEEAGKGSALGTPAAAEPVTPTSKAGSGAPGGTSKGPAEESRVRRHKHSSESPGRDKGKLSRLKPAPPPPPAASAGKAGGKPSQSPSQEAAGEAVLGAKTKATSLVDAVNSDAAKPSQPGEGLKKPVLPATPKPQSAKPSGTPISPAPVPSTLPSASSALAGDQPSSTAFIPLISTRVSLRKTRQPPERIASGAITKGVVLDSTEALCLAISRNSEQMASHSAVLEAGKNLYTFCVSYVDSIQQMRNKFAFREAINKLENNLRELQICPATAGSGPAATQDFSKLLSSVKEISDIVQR
Sequence of Yes (P07947 whole entry): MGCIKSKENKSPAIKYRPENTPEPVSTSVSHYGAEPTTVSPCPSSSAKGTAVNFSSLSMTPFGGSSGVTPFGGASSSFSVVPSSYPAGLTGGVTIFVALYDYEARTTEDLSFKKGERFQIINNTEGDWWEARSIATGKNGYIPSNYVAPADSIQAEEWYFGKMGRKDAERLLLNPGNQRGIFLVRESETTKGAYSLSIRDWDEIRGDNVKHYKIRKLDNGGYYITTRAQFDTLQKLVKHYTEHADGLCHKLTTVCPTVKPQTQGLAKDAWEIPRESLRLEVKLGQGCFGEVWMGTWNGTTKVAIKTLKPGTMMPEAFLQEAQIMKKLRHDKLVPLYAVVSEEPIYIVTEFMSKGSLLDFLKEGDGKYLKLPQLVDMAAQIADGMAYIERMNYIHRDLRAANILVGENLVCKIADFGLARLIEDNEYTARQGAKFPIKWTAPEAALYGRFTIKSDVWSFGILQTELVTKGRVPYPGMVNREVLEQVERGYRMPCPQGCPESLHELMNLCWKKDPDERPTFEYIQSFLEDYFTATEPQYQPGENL
Sequence of Lyn(h) (P07948 whole entry): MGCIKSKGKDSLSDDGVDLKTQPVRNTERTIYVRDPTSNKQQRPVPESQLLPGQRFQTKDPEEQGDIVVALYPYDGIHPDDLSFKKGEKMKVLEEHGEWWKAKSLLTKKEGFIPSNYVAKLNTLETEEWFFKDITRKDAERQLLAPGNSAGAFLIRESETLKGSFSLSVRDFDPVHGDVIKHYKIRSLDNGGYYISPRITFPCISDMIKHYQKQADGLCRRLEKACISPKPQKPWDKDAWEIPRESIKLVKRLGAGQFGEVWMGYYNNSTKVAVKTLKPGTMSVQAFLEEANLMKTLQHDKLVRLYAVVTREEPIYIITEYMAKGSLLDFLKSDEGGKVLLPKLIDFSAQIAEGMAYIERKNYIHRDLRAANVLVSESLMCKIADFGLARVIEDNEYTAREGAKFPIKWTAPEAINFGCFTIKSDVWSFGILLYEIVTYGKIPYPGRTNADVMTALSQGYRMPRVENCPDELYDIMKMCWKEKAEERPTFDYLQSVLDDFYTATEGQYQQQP
Sequence of Ret(h) (P07949 29-1114): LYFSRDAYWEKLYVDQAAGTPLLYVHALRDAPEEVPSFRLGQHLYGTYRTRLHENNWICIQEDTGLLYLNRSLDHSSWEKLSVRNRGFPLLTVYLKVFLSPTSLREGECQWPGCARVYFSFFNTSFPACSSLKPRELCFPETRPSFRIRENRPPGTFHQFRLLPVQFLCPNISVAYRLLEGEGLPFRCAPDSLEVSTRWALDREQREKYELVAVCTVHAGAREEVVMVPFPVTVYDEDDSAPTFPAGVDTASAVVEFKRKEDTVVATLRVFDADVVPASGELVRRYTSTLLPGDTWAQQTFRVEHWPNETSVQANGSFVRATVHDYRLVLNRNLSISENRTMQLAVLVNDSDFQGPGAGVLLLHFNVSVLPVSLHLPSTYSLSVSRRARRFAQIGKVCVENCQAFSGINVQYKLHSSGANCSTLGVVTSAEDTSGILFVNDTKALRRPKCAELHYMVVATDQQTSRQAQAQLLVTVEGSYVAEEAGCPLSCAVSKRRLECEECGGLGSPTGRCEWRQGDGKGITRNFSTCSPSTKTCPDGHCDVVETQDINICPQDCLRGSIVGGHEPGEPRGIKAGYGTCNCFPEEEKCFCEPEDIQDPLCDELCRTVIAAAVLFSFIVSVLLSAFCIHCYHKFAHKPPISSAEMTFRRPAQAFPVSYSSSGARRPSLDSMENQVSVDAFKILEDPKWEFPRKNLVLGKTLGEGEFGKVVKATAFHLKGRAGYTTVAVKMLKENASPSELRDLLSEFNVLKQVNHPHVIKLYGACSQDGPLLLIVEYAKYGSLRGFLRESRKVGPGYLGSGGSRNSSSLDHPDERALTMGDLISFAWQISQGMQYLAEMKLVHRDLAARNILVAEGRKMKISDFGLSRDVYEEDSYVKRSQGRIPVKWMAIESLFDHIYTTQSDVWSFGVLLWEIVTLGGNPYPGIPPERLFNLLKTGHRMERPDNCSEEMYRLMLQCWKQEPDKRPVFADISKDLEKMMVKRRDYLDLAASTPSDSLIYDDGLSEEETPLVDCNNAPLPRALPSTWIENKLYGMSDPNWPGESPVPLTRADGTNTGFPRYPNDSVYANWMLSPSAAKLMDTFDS
Sequence of c-SRC(h) (P12931 whole entry): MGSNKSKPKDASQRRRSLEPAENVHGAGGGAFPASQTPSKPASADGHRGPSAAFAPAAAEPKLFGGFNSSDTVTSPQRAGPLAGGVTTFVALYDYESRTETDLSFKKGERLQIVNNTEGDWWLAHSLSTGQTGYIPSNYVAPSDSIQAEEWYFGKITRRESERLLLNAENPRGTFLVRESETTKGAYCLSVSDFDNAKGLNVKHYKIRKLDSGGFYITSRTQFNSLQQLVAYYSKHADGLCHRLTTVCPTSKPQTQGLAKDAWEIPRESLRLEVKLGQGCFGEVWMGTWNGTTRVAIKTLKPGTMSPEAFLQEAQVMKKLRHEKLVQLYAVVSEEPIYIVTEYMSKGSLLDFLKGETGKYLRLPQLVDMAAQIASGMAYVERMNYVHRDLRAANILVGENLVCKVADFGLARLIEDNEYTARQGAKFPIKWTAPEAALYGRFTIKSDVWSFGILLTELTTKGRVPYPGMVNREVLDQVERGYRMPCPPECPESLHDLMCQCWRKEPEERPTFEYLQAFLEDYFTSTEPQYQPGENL
Sequence of c-KIT (P10721 26-976): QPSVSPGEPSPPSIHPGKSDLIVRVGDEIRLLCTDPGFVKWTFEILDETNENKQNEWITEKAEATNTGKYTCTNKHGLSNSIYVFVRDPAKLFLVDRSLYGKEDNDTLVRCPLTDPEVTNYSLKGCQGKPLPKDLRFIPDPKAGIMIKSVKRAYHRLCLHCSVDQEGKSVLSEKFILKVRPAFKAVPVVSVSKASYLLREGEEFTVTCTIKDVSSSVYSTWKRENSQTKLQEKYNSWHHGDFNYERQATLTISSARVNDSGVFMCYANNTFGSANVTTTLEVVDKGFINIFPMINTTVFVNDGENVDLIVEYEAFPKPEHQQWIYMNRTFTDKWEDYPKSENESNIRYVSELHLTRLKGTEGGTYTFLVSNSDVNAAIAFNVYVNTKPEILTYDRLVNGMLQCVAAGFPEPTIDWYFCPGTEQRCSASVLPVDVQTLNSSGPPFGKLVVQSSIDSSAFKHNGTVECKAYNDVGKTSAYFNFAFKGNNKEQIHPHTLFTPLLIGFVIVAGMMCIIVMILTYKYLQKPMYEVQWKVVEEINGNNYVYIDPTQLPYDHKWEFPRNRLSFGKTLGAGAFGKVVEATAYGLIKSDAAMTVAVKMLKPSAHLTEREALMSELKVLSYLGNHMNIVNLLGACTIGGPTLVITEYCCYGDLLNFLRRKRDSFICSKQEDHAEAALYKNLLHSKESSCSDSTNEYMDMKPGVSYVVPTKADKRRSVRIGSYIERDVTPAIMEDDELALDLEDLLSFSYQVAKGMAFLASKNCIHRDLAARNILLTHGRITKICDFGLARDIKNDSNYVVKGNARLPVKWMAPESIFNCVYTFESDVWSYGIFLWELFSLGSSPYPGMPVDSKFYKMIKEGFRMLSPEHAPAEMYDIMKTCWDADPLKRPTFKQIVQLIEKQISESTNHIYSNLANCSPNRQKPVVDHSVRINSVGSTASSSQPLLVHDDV

CC(C)n1c(Nc2cccnc2)nc2cnc(Nc3ccc(N4CCN(C)CC4)cc3)nc21 [Example 1, arylaminopurine derivative.trihydrochloride.pentahydrate]
TGA: starting to lose the acid [1]: ~140 °C (see FIG. 19) | TGA: starting to lose the water of crystallization [1]: crystallization at about 40° C.; | growth of human non-small cell lung cancer HCC827 ([2]; 7.5, 15 and 30 mg/kg, dose dependence): dose-dependently inhibit the growth | tumor size compared with the initial tumor ([2]; HCC827, 7.5 mg/kg): tumor shrinkage | tumor size compared with the initial tumor ([2]; HCC827, 15 mg/kg): tumor shrinkage | regression of the tumor ([2]; HCC827, 30 mg/kg): nearly complete regression of the tumor | tumor size compared with the initial tumor ([2]; HCC827, 30 mg/kg): tumor shrinkage | inhibition of kinase activity [3]: could inhibit the activities | IC50 [4]: 10 nM | IC50 [5]: 4 nM | IC50 [6]: 26 nM | IC50 [7]: 7 nM | inhibition of kinase activity [8]: could inhibit the activities | inhibition of kinase activity [9]: could inhibit the activities | inhibition of kinase activity [10]: could inhibit the activities | IC50 [11]: 247 nM | IC50 [12]: 323 nM | IC50 [13]: 34 nM | IC50 [14]: 93 nM | IC50 [15]: 37 nM | IC50 [16]: 3 to 10 nM | IC50 [17]: 176 nM | inhibition of kinase activity [18]: could inhibit the activities | IC50 [19]: 25 nM | inhibition of kinase activity [20]: could inhibit the activities | tumor growth ([21]; 5 mg/kg): completely inhibit the tumor growth | tumor growth ([21]; 10 mg/kg): complete regression of the tumor | tumor growth ([21]; 20 mg/kg): complete regression of the tumor

Reference: patent US20230144619A1, “SALT OF ARYLAMINOPURINE DERIVATIVE, PREPARATION METHOD THEREFOR AND USE THEREOF” (CSPC Zhongqi Pharmaceutical Technology (Shijiazhuang) Co., …, priority 2020, published 2023)
